Source: patent US20110144374A1, “OXIME ETHER DERIVATIVE AND FUNGICIDE FOR AGRICULTURE AND HORTICULTURE” (Nippon Soda Co., Ltd., priority 2008, published 2011)

SMILES | melting point [°C]
COC(=O)NOc1cc(/C(C)=N/OCc2ccccc2C(F)(F)F)ccc1C [Compound 21-24, N-{2-methyl-5-[1-(2-trifluoromethylbenzyloxyimino)ethyl]phenoxy}methyl carbamate] | 82 to 85
COC(=O)NOc1cc(/C(C)=N/OCc2cccc(F)c2C(F)(F)F)ccc1Cl [Compound 1-13, N-(2-chloro-5-{1-[3-fluoro-2-(trifluoromethyl)benzyloxyimino]ethyl}phenoxy)methyl carbamate] | 104 to 105
COC(=O)NOc1cc(/C(C)=N/OCc2ccccc2I)ccc1Cl [Compound 11-9, N-{2-chloro-5-[1-(2-iodobenzyloxyimino)ethyl]phenoxy}methyl carbamate] | 121 to 122
